Reference: patent US5766848A (Synaptic Pharmaceutical Corporation, priority 1994, dated 1998)

Tests used:
human GAT-3 = target: T1, human GAT-3 (Homo sapiens, UniProt P48066); test: Inhibition of [3H]GABA uptake, human GAT-3 stable LM(tk-) cell line; assay type: cell-based; conditions: read-out: IC50, human GAT-3, inhibition of [3H]GABA uptake, Table 9, means ± S.E.M.
T1 construct: expressed in transfected cells
T1 sequence (P48066 1-632): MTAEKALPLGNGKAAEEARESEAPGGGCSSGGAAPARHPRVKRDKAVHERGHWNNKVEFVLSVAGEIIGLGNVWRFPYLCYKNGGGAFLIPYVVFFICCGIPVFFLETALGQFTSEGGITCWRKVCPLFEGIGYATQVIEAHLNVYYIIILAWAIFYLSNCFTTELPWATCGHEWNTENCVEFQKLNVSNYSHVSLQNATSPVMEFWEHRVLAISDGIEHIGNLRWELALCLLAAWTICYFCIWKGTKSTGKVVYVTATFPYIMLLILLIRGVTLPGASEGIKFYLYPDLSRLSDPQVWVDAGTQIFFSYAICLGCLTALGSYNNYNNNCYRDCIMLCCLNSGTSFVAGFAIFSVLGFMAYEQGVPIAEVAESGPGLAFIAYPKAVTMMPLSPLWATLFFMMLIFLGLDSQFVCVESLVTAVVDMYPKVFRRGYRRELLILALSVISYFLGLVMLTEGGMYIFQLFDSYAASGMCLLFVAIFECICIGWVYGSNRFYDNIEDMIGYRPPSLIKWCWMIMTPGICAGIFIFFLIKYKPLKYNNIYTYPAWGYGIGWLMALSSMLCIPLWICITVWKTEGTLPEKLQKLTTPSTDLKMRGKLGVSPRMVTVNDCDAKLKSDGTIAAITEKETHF
Procedure: (§1) Cells were grown under standard conditions (37° C., 5% CO2) in DMEM (Dulbecco's modified Eagles's medium; GIBCO, Grand Island, N.Y.).
(§2) Cells grown in 24-well plates were washed 3× with HEPES-buffered saline (HBS, in mM: NaCl, 150; HEPES, 20; CaCl2, 1; glucose, 10; KCl, 5; MgCl2 1; pH 7.4) and allowed to equilibrate on a 37° C. slide warmer. After 10 minutes the medium was removed and unlabeled drugs in HBS were added (450 μl/well). […] Plates were incubated at 37° C. for 10 minutes, then washed rapidly 3× with ice-cold HBS, using a 24-position plate washer (Brandel, Gaithersburg, Mass.; model PW-12). Cells were solubilized with 0.05% sodium deoxycholate/0.1N NaOH (0.25 ml/well), an aliquot neutralized with 1N HCl, and radioactivity was determined by scintillation counting. Protein was quantified in an aliquot of the solubilized cells using a BIO-RAD protein assay kit, according to the manufacturer's directions.
(§3) Competition curves were conducted in duplicate, using 10 concentrations of unlabeled drug. […] All data throughout the paper represent means±S.E.M.

[1] = literature reports; cited from earlier work
human BGT-1 = target: T2, human BGT-1 (Homo sapiens, UniProt P48065); conditions: read-out: IC50, human BGT-1, inhibition of [3H]GABA uptake; Table 9; stable LM(tk-) cell line; means ± S.E.M.
T2 sequence (P48065 1-614 C10Y): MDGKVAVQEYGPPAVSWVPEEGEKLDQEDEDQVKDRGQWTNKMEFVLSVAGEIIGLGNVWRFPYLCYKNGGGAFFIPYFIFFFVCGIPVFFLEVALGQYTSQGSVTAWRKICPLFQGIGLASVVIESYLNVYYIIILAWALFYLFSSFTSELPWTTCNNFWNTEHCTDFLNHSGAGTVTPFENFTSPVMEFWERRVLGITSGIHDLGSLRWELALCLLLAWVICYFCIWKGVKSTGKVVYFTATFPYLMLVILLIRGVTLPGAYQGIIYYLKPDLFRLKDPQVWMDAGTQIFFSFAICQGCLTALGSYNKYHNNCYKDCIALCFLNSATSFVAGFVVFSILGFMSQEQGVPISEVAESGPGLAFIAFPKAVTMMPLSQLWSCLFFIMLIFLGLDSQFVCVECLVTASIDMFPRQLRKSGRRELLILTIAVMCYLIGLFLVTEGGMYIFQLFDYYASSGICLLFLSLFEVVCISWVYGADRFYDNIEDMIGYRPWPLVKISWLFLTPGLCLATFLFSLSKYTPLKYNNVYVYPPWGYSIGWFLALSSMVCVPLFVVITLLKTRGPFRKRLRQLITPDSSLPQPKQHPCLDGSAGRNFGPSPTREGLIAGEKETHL
Procedure: Cells were grown under standard conditions (37° C., 5% CO2) in Dulbecco's modified Eagles's medium (GIBCO, Grand Island, N.Y.).
After 10 minutes the medium was removed and unlabeled drugs in HBS were added (450 μl/well). […] Plates were incubated at 37° C. for 10 minutes, then washed rapidly 3× with ice-cold HBS, using a 24-position plate washer (Brandel, Gaithersburg, Mass.; model PW-12). Cells were solubilized with 0.05% sodium deoxycholate/0.1N NaOH (0.25 ml/well), an aliquot neutralized with 1N HCl, and radioactivity was determined by scintillation counting. Protein was quantified in an aliquot of the solubilized cells using a BIO-RAD protein assay kit, according to the manufacturer's directions.
Data Analysis: Competition curves were conducted in duplicate, using 10 concentrations of unlabeled drug. […] All data throughout the paper represent means±SEM.
as §1, §2, §3

[2] = human volunteers (CI-966); clinical reports (Tiagabine); cited from earlier work
human GAT-1 = human GAT-1 (Homo sapiens, UniProt P30531); conditions: read-out: IC50, human GAT-1, inhibition of [3H]GABA uptake
human GAT-1, sequence (P30531 whole entry): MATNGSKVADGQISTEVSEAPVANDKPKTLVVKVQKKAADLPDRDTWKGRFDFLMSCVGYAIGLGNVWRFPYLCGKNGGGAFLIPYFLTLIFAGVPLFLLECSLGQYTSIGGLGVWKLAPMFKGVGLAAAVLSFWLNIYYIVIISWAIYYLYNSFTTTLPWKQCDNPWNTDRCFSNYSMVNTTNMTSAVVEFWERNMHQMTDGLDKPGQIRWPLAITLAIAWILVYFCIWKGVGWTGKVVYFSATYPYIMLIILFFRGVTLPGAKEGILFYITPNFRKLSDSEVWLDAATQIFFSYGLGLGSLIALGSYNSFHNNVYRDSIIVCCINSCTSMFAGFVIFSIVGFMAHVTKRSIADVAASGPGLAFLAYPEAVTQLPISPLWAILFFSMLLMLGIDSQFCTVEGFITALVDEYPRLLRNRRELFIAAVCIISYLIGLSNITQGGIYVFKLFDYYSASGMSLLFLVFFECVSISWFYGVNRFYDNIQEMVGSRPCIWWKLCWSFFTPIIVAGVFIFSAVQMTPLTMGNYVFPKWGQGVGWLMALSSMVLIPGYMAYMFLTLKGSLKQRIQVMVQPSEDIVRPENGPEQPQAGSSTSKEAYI
Procedure: as §1, §2, §3

Q: Which IC50 (human GAT-3) does the source give for `O=C(O)C1=CCCN(CCOC(c2ccc(C(F)(F)F)cc2)c2ccc(C(F)(F)F)cc2)C1` [CI-966, [1-[2-[bis4(trifluoromethyl)phenyl]methoxy]ethyl]-1,2,5,6-tetrahydro-3-pyridinecarboxylic acid] here?
A: Its IC50 is 333 ± 76 µM.

Q: And the “anticonvulsive activity in animals” value [1]?
A: The value was “display anticonvulsive activity”.

Q: And the IC50 (human BGT-1)?
A: The IC50 was 300 ± 10 µM.

Q: And the “severe adverse effects in humans” value [2]?
A: Its value is “Severe adverse effects were noted”.

Q: What about the IC50 (human GAT-1) of the same compound?
A: The IC50 was 0.26 ± 0.05 µM.
